Molecular target: T1, ATM (Homo sapiens, UniProt Q13315)
T1 construct: detecting phosphorylation of Chk2 in a human non-small cell lung cancer cell line NCI-H460 (ATCC company); host or cells: NCI-H460 human non-small cell lung cancer cells
Test: ATM inhibition test (phosphorylation of Chk2 generated by ionizing radiation, AlphaScreen SureFire)
Type: cell-based
Settings: phosphorylated Chk2 in NCI-H460 cells, ionizing radiation 8Gy, 1 hour after test compound treatment; read-out: ATM inhibitory activity
Method in brief: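 Phosphorylated Chk2 read by AlphaScreen SureFire in human non-small cell lung cancer NCI-H460 cells, 1 hour after 8Gy ionizing radiation at 37° C. Compound added 1 hour before irradiation. Percent inhibition normalised between irradiated and non-irradiated drug-untreated signals.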

T1 sequence (Q13315 whole entry): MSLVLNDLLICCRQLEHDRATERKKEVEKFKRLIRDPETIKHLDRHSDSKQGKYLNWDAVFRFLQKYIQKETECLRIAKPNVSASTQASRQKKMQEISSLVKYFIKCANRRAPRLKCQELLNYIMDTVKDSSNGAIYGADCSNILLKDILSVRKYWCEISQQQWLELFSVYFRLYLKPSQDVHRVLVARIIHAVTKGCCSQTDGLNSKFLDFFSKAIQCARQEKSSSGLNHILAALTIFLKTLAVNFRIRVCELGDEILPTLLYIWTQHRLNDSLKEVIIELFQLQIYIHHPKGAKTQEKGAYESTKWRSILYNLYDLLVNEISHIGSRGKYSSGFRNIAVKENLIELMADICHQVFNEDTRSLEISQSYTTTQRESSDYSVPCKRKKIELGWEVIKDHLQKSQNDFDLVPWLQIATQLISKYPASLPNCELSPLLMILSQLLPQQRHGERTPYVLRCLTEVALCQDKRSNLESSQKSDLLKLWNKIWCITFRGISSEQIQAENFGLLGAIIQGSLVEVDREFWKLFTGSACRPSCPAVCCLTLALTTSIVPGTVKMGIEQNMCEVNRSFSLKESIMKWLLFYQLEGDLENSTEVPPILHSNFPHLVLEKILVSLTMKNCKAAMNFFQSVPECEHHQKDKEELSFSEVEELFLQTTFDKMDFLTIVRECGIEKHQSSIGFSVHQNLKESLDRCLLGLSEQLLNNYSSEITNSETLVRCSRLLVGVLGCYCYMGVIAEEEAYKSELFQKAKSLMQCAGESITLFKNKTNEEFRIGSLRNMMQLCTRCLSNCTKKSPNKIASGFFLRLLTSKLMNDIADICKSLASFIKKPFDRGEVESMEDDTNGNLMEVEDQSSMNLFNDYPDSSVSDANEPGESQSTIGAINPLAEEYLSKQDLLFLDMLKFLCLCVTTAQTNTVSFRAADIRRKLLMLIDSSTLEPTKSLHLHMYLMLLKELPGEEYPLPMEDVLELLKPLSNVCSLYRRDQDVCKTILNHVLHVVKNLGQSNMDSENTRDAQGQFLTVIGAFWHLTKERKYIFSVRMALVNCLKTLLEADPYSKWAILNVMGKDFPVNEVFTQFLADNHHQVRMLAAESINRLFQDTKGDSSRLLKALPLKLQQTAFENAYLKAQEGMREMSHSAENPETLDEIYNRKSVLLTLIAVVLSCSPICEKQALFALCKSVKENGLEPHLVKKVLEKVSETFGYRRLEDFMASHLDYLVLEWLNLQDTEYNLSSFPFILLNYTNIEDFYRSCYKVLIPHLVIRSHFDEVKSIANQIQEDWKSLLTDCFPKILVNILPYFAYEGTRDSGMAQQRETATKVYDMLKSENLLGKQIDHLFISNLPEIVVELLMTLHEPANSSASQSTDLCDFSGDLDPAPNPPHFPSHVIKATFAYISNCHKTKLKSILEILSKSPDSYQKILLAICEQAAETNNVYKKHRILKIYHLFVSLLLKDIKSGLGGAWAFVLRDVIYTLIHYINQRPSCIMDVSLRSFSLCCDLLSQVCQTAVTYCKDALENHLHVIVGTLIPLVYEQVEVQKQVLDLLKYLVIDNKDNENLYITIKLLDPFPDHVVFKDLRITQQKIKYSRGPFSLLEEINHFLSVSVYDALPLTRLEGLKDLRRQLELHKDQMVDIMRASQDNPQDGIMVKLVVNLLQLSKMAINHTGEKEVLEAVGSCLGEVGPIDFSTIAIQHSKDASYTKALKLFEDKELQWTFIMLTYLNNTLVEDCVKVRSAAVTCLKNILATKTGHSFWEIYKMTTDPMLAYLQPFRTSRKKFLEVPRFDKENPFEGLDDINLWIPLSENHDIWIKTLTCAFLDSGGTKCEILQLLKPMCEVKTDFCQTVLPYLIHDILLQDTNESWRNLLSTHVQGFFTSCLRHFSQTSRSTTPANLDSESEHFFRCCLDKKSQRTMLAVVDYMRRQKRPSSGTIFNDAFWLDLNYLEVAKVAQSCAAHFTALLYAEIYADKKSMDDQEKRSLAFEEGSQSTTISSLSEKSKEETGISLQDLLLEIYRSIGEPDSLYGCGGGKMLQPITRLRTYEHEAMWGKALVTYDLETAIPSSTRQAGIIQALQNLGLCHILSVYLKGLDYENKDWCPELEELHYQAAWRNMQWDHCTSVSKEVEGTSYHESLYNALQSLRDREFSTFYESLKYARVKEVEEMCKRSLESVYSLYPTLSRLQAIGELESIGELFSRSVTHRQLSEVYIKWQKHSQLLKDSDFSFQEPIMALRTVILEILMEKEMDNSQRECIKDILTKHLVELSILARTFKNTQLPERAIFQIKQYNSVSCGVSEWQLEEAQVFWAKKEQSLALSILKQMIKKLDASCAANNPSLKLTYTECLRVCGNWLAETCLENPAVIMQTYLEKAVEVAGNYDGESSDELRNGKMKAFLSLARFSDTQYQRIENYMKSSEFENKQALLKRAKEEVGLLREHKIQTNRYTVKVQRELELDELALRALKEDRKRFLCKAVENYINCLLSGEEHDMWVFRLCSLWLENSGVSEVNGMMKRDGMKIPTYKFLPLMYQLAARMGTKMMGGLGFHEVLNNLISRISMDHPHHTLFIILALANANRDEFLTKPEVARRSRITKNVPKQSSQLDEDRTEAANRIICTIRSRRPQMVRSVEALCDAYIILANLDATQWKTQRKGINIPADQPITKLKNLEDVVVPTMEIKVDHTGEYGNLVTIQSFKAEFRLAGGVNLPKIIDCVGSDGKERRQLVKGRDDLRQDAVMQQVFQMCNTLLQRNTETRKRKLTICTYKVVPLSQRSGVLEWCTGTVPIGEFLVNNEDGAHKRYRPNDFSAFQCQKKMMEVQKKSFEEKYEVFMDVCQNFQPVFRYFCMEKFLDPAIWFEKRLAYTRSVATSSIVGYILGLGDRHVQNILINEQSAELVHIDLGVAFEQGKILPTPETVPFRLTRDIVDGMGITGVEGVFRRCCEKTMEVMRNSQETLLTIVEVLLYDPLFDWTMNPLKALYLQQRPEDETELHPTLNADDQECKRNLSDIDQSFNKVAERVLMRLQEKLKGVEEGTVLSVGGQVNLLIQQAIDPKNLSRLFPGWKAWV

Row | Compound | IC50
1 | O=c1cc(N2CCOCC2)cc(-c2cccc3c2Sc2ccc(NCc4ccnc(N5CCOCC5)n4)cc2S3)[nH]1 [Example 1-12-41, 4-Morpholino-6-(7-(((2-morpholinopyrimidin-4-yl)methyl)amino)thianthren-1-yl)pyridin-2(1H)-one] | 0.1 to 0.5 µM
2 | Cc1cccc(C(CN)Nc2ccc3c(c2)Cc2cccc(-c4cc(N5CCOCC5)cc(=O)[nH]4)c2O3)n1 (stereo not drawn) [Example 2-18, 6-(7-((2-Amino-1-(6-methylpyridin-2-yl)ethyl)amino)-9H-xanthen-4-yl)-4-morpholinopyridin-2(1H)-one] | 0.1 to 0.5 µM
3 | O=c1cc(N2CCOCC2)cc(-c2cccc3c2Oc2ccc(NC4CCN(CCc5ccc(CO)cc5)CC4)cc2C3)[nH]1 [Example 2-30-17, 6-(7-((1-(4-(Hydroxymethyl)phenethyl)piperidin-4-yl)amino)-9H-xanthen-4-yl)-4-morpholino pyridin-2 (1H)-one] | 0.1 to 0.5 µM
4 | O=c1cc(N2CCOCC2)cc(-c2cccc3c2Sc2ccc(NCc4cnccn4)cc2S3)[nH]1 [Example 1-12-42, 4-Morpholino-6-(7-((pyrazin-2-ylmethyl)amino)thianthren-1-yl) pyridin-2(1H)-one] | 0.1 to 0.5 µM
5 | O=c1cc(N2CCOCC2)cc(-c2cccc3c2Sc2ccc(NC4CCCN(C5CCOCC5)C4)cc2S3)[nH]1 (stereo not drawn) [Example 1-24-7, 4-Morpholino-6-(7-((1-(tetrahydro-2H-pyran-4-yl)piperidin-3-yl)amino)thianthren-1-yl)pyridin-2 (1H)-one] | 0.1 to 0.5 µM
6 | Cc1nccc(CNc2ccc3c(c2)Sc2cccc(-c4cc(N5CCOCC5)cc(=O)[nH]4)c2S3)n1 [Example 1-12-39, 6-(7-(((2-Methylpyrimidin-4-yl)methyl)amino)thianthren-1-yl)-4-morpholino pyridin-2 (1H)-one] | 0.5 to 2 µM
7 | COCc1ccc(CNc2ccc3c(c2)Cc2cccc(-c4cc(N5CCOCC5)cc(=O)[nH]4)c2O3)cn1 [Example 2-2-43, 6-(7-(((6-(Methoxymethyl)pyridin-3-yl)methyl)amino)-9H-xanthen-4-yl)-4-morpholino pyridin-2(1H)-one] | 0.1 to 0.5 µM
8 | O=c1cc(N2CCOCC2)cc(-c2cccc3c2Oc2ccc(NCCc4cccnc4)cc2C3)[nH]1 [Example 2-12, 4-morpholino-6-(7-((2-(pyridin-3-yl)ethyl)amino)-9H-xanthen-4-yl)pyridin-2(1H)-one] | 0.1 to 0.5 µM
9 | O=c1cc(N2CCOCC2)cc(-c2cccc3c2Sc2ccc(NC(CN4CCOCC4)CN4CCOCC4)cc2S3)[nH]1 [Example 1-51-12, 6-(7-((1,3-Dimorpholinopropan-2-yl)amino)thianthren-1-yl)-4-morpholino pyridin-2 (1H)-one] | < 0.1 µM
10 | O=c1cc(N2CCOCC2)cc(-c2cccc3c2Sc2ccc(NC4CN(Cc5cccnc5)C4)cc2S3)[nH]1 [Example 1-24-21, 4-Morpholino-6-(7-((1-(pyridin-3-ylmethyl)azetidin-3-yl)amino)thianthren-1-yl)pyridin-2(1H)-one] | 0.1 to 0.5 µM
11 | CCN(C)CCC(Nc1ccc2c(c1)Sc1cccc(-c3cc(N4CCOCC4)cc(=O)[nH]3)c1S2)c1cnc(C)cn1 (single isomer, unassigned) [Example 1-51-10, 6-(7-((3-(Ethyl(methyl)amino)-1-(5-methylpyrazin-2-yl)propyl)amino)thianthren-1-yl)-4-morpholino pyridin-2(1H)-one] | < 0.1 µM
12 | O=c1cc(N2CCOCC2)cc(-c2cccc3c2Sc2ccc(NCc4cnccn4)cc2C3)[nH]1 [Example 3-8-5, 4-Morpholino-6-(7-((pyrazin-2-ylmethyl)amino)-9H-thioxanthen-4-yl)pyridin-2 (1H)-one] | 0.5 to 2 µM

Other lines, results leading:

Row | IC50 | Compound
13 | < 0.1 µM | Cc1ccc(C(CCN2CCCCC2)Nc2ccc3c(c2)Sc2cccc(-c4cc(N5CCOCC5)cc(=O)[nH]4)c2S3)nc1 (single isomer, unassigned) [Example 1-51-6, 6-(7-((1-(5-Methylpyridin-2-yl)-3-(piperidin-1-yl)propyl)amino)thianthren-1-yl)-4-morpholino pyridin-2(1H)-one]
14 | 0.1 to 0.5 µM | O=c1cc(N2CCOCC2)cc(-c2cccc3c2Sc2ccc(NC4CCCN(C5CCCC5)C4)cc2S3)[nH]1 (stereo not drawn) [Example 1-24-5, 6-(7-((1-Cyclopentylpiperidin-3-yl)amino)thianthren-1-yl)-4-morpholino pyridin-2(1H)-one]
15 | 0.1 to 0.5 µM | CC(Nc1ccc2c(c1)Sc1cccc(-c3cc(N4CCOCC4)cc(=O)[nH]3)c1S2)c1nccs1 (stereo not drawn) [Example 1-12-67, 4-Morpholino-6-(7-((1-(thiazol-2-yl)ethyl)amino)thianthren-1-yl)pyridin-2 (1H)-one]
16 | 0.5 to 2 µM | O=c1cc(N2CCOCC2)cc(-c2cccc3c2Sc2ccc(NCCN4CCOCC4)cc2C3)[nH]1 [Example 3-4-1, 4-Morpholino-6-(7-((2-morpholinoethyl)amino)-9H-thioxanthen-4-yl)pyridin-2(1H)-one]
17 | 0.1 to 0.5 µM | CC(CN1CC2(COC2)C1)Nc1ccc2c(c1)Sc1cccc(-c3cc(N4CCOCC4)cc(=O)[nH]3)c1S2 (stereo not drawn) [Example 1-43-2, 6-(7-((1-(2-Oxa-6-azaspiro [3.3]heptan-6-yl)propan-2-yl)amino)thianthren-1-yl)-4-morpholino pyridin-2(1H)-one]
18 | 0.1 to 0.5 µM | COc1cccc(C(C)Nc2ccc3c(c2)Cc2cccc(-c4cc(N5CCOCC5)cc(=O)[nH]4)c2O3)n1 (stereo not drawn) [Example 2-14-30, 6-(7-((1-(6-Methoxypyridin-2-yl)ethyl)amino)-9H-xanthen-4-yl)-4-morpholine pyridin-2(1H)-one]
19 | 0.1 to 0.5 µM | O=c1cc(N2CCOCC2)cc(-c2cccc3c2Sc2ccc(NC4CCN(Cc5ccncc5)CC4)cc2S3)[nH]1 [Example 1-24-20, 4-Morpholino-6-(7-((1-(pyridin-4-ylmethyl)piperidin-4-yl)amino)thianthren-1-yl)pyridin-2 (1H)-one]
20 | 0.1 to 0.5 µM | COc1ccncc1CN1CCC(Nc2ccc3c(c2)Cc2cccc(-c4cc(N5CCOCC5)cc(=O)[nH]4)c2O3)CC1 [Example 2-28-11, 6-(7-((1-((4-Methoxypyridin-3-yl)methyl)piperidin-4-yl)amino)-9H-xanthen-4-yl)-4-morpholino pyridin-2(1H)-one]
21 | 0.5 to 2 µM | CCN(CC)C(=O)CN1CCN(c2cccc(CNc3ccc4c(c3)Sc3cccc(-c5cc(N6CCOCC6)cc(=O)[nH]5)c3S4)n2)CC1 [Example 1-12-34, N,N-Diethyl-2-(4-(6-(((6-(4-morpholino-6-oxo-1,6-dihydro-pyridin-2-yl)thianthren-2-yl)amino)methyl)pyridin-2-yl)piperazin-1-yl) acetamide]
22 | 0.1 to 0.5 µM | O=c1cc(N2CCOCC2)cc(-c2cccc3c2Sc2ccc(NCCN4CCS(=O)(=O)CC4)cc2S3)[nH]1 [Example 1-16-8, 6-(7-((2-(1,1-Dioxidethiomorpholino)ethyl)amino)thianthren-1-yl)-4-morpholinopyridin-2(1H)-one]
23 | 0.1 to 0.5 µM | Nc1ncccc1CNc1ccc2c(c1)Cc1cccc(-c3cc(N4CCOCC4)cc(=O)[nH]3)c1O2 [Example 2-2-21, 6-(7-(((2-Aminopyridin-3-yl)methyl)amino)-9H-xanthen-4-yl)-4-morpholino pyridin-2(1H)-one]
24 | 0.1 to 0.5 µM | CC(CN1CCN(C)CC1)Nc1ccc2c(c1)Sc1cccc(-c3cc(=O)cc(N4CCOCC4)o3)c1S2 (stereo not drawn) [Example 11-4, 2-(7-((1-(4-Methylpiperazin-1-yl)propan-2-yl)amino)thianthren-1-yl)-6-morpholino-4H-pyran-4-one]

From patent US9586951B2 (FUJIFILM Corporation, priority 2013, dated 2017)
